According to patent US8097650B2, “Method of treating a condition associated with phosphorylation of TASK-1” (The Trustees of Columbia University In The City of New York, priority 2005, dated 2012):

Key:
Type in all cases: cell-based
mTRAAK = target: T1, mTRAAK (Mus musculus, UniProt O88454); experiment: mTRAAK current in HEK cells (ramp clamp); details: read-out: EC50 for activation of TRAAK current
T1 construct: expressed in transfected cells; host or cells: HEK cells
T1 sequence (O88454 1-398): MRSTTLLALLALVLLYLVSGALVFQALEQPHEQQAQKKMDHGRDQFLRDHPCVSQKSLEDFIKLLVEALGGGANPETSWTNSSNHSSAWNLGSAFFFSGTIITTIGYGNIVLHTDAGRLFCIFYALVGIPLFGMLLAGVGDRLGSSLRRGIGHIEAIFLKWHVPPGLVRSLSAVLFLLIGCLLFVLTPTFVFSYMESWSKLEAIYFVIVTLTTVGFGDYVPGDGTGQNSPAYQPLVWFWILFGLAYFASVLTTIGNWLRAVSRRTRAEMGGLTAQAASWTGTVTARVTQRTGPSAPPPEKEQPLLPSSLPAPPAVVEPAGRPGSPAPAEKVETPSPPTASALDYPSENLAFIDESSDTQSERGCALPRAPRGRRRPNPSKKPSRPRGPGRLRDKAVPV
Protocol: FIG. 21. CHO cells (hTREK-1, hTASK-1) or HEK cells (mTRAAK) were co-transfected with plasmids encoding one of the two pore domain channels and GFP using the GeneJammer reagent. After 48-60 h, the expressed current was measured using a ramp protocol while the cells were perfused with regular Tyrode's solution containing varying concentrations of ONO-RS-082 (range of concentration from 10 nM to 500 μM as noted in FIG. 21) until a steady state was reached. Each cell was exposed to only one concentration of drug. Panel A: TREK-1 current was determined using a ramp clamp, and the percent increase induced by ONO-RS-082 was measured at the most positive imposed voltage (n≧5). The EC50 for activation was around 3 μM and the basal and ONO-activated current densities are noted. Panel B: TASK-1 current was determined using a ramp clamp in Tyrode's solution at pH=8 and the percent increase induced by ONO-RS-082 was measured at the most positive imposed voltage (n≧4). The EC50 was around 8 μM and the basal and ONO-activated current densities are noted. Panel C: TRAAK current was determined using a ramp clamp, and the percent increase induced by ONO-RS-082 was measured at the most positive imposed voltage (n≧4). The EC50 was around 0.9 μM and the basal and ONO-activated current densities are noted.

quiescent myocytes = experiment: Spontaneous activity in quiescent mouse ventricular myocytes (current clamp); details: C-PAF 185 nM
Protocol: Adult mice, 2-3 months old, were anesthetized with ketamine/xylazine and their hearts were removed according to protocols approved by the Columbia University-IACUC. Experiments were performed on single rod-shaped, quiescent ventricular myocytes dissociated using a standard retrograde collagenase perfusion (Kuznetsov V et al. (1995) Circ Res 76: 40-52) from hearts of mice that were either wild-type (WT), or PAFR knockouts (KO). Both WT and KO mice were bred on a C57/B16 background. The derivation of the KO mice has been described previously (Hoffman, B F et al.(1996) J Cardiovasc Electrophysiol 7:120-133).
Prior to electrophysiological measurements, cells were placed into the perfusion chamber and superfused at room temperature with Tyrode's buffer (in mM: NaCl, 140; KCl, 5.4; CaCl2 1; MgCl2, Hepes, 5; Glucose, 10; pH 7.4). The whole-cell patch clamp technique was used with pipettes having resistances of 1.5-3 MΩ (intracellular solution, in mM: aspartic acid, 130; KOH, 146; NaCl, 10; CaCl2, 2; EGTA, 5; Hepes, 10; MgATP, 2; pH 7.2). Solutions of C-PAF, the PAFR antagonist, CV-6209 (Biomol) and the PKC inhibitor, bisindolylmaleimide I (BIM I; Calbiochem) were prepared in water and diluted in Tyrode's before use. […] A custom-made fast perfusion device was used to exchange the solution around the cell within 1 s (DiFrancesco et al. (1986) J Physiol 377: 61-88).
Current and voltage protocols were generated using Clampex 7.0 software applied by means of an Axopatch 200B amplifier and a Digidata 1200 interface (Axon Instruments). During voltage clamp, steady state current traces were acquired at 500 Hz and final filtered at 10 Hz. During current clamp, membrane voltage was acquired at 5 KHz and filtered at 1 KHz. Ramp clamps were conducted by imposing a voltage ramp (14 mV/s) at a 500 Hz acquisition rate with 1 kHz filtering. Data were analyzed using pCLAMP 8.0 (Axon) and Origin 6.0 (Microcal) and are presented as mean±SEM. Steady-state current was determined by computer calculation of average current over a time period of at least 5 s. In all experiments, the n value indicates the number of myocytes studied, and represents pooled data from at least 2 (voltage clamp) or 3 (current clamp) animals. Student's t-test, one-way ANOVA and χ^2 tests were used; a value of p<0.05 was considered statistically significant. Records have been corrected for the junction potential, which was measured to be 9.8 mV.

human TASK-1 S358A = experiment: Human TASK-1 S358A mutant current in CHO cells; details: Tyrode's pH 8, ramp
Text: FIGS. 24A-24B. Mutations in human TASK-1 remove the sensitivity to C-PAF and PMA when the channel is expressed in CHO cells. Two human TASK-1 (hTASK-1) mutants in which either serine-358 was converted to alanine (S358A) or threonine-383 was converted to alanine (T383A) were generated and separately expressed in CHO cells. The C-PAF-sensitive (24A) and PMA-sensitive currents (24B) were obtained in Tyrode's at pH 8 using a ramp protocol in […] configuration, essentially as described in FIG. 15. […] However, the S358A channel was not inhibited in the presence of C-PAF (24A) and the T383A channel was not inhibited by PMA (24B).

Compound	EC50 (mTRAAK) [µM]	PAFR KO myocytes with no response (quiescent myocytes)	quiescent WT myocytes sensitive to C-PAF superfusion (quiescent myocytes)	initial delay of the effect (quiescent myocytes; quiescent WT myocytes) [s]	inhibition of S358A channel (human TASK-1 S358A)
CCCCCc1ccc(C=CC(=O)Nc2cc(Cl)ccc2C(=O)O)cc1 [ONO-RS-082]	~0.9				
CCCCCCCCCCCCCCCCOC[C@H](COP(=O)([O-])OCC[N+](C)(C)C)OC(=O)NC [C-PAF, carbamyl-platelet-activating factor]		7 of 9	11 of 11	96 ± 11	not inhibited
